Broadly, the inhibition is the relative decrease from the control value, in per cent.

The source of these data is patent publication US10919891B2, “Heterocyclic compound” (TAKEDA PHARMACEUTICAL COMPANY LIMITED, priority 2017, dated 2021).

The experiment addresses T1, human CaSR (Homo sapiens, UniProt P41180).
T1 construct: expressed in transfected cells; host or cells: CHO cells
T1 sequence (P41180 20-1078): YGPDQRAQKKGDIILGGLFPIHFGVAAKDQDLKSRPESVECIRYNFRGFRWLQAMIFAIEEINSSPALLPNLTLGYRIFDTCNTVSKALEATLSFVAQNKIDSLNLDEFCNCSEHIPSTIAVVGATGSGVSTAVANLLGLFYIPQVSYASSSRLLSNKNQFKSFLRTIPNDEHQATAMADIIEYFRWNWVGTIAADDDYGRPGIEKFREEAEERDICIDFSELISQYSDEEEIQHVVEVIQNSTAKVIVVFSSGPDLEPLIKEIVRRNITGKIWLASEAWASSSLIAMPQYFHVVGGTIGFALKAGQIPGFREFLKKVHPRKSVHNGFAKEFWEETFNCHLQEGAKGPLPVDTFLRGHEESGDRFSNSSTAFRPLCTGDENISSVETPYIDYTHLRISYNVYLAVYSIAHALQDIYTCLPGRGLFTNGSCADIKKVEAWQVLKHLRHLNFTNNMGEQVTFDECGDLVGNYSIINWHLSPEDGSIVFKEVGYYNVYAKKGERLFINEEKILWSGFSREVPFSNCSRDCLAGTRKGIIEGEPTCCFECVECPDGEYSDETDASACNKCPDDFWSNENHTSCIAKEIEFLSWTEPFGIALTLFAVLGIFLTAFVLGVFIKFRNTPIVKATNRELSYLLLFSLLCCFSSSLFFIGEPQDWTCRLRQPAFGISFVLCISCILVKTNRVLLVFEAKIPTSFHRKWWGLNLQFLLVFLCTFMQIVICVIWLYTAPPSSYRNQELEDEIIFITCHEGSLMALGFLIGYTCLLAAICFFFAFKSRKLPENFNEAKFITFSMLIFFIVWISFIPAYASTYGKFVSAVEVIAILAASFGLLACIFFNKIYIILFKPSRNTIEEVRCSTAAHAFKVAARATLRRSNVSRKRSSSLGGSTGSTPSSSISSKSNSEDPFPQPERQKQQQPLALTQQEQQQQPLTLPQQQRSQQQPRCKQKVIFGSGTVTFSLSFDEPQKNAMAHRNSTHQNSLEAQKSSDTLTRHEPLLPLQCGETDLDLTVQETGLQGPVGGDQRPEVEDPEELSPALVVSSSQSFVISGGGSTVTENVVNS
Briefly: Human CaSR Antagonist Activity (CHO cells, NFAT-Luciferase reporter). The note with it: 3.3 μm test compound, CaCl2 final 1.3 mM, 100% = reference carboxamide at 10 μM; for inhibition at 3.3 µM: CHO, 2 h, read-out: Inhibition rate (%) at 3.3 μm. The class given is cell-based. As to the method:
CaSR antagonist activity measurement was performed using Bright-Glo Luciferase assay system (Promega Corporation). CHO cells in which human CaSR and NFAT-Luciferase reporter gene were forcibly expressed were suspended in MEM alpha (Wako Pure Chemical Industries, Ltd.) containing 10% dialyzed serum (HyClone). The cells in suspension was seeded in 384-well white plate (Corning) at 10,000/20 μL/well, and cultured in an incubator of 37° C., 5% CO2 for one day. A diluent of Test compound was prepared with assay buffer (MEM alpha containing 10 mM HEPES (Life Technologies) and 10% dialysis serum). The diluent was added to the plate at 5 μL/well and allowed to stand at 37° C. for 10 minutes. Further, a diluent of 7.8 mM CaCl2 prepared with assay buffer (final concentration 1.3 mM) was added at 5 μl/well and allowed to stand in an incubator of 37° C., 5% CO2 for 2 hours. Bright-Glo reagents (Promega Corporation) were added at 10 μL/well, and the obtained mixture was stirred for 5 minutes, and then luminescence intensity was measured using Multi-label reader Envision (PerkinElmer, Inc.). The activity (%) of the test compound was calculated with the definitions in which the luminescence intensity when DMSO is added in place of the test compound is defined as 0% inhibition; and the luminescence intensity when (5R)—N-(1-ethyl-1-(4-ethylphenyl)propyl)-2,7,7-trimethyl-5-phenyl-4,5,6,7-tetrahydropyrazolo[1,5-a]Pyrimidine-3-carboxamide at final concentration of 10 μM is added is defined as 100% inhibition.
(Reporter assays use an easily measured gene product as a stand-in for the process of interest.)

Turning to `CC1(C)C[C@H](c2ccccc2)Nc2c(C(=O)N3CC4CC4(c4ccsc4)C3)cnn21` (stereo partly drawn) [Example 46, ((5R)-7,7-Dimethyl-5-phenyl-4,5,6,7-tetrahydropyrazolo[1,5-a]pyrimidin-3-yl)(1-(3-thienyl)-3-azabicyclo[3.1.0]hex-3-yl)methanone], the inhibition at 3.3 µM worked out at 99%.

In the case of `COc1cccc(C23CN(C(=O)c4cnn5c4N[C@@H](c4ccccc4)CC5(C)C)CC2C3(F)F)c1` (stereo partly drawn) [Example 51, (6,6-Difluoro-1-(3-methoxyphenyl)-3-azabicyclo[3.1.0]hex-3-yl)((5R)-7,7-dimethyl-5-phenyl-4,5,6,7-tetrahydropyrazolo[1,5-a]pyrimidin-3-yl)methanone], the inhibition at 3.3 µM worked out at 115%.

Regarding `CC1(C)C[C@H](c2ccccc2)Nc2c(C(=O)N3CC4CC4(c4ccncc4)C3)cnn21` (some centres unmarked) [Example 45], the inhibition at 3.3 µM stood at 96%.

Turning to `CC1(C)C[C@H](c2ccccc2)Nc2c(C(=O)N3C[C@@H]4C[C@]4(C(F)F)C3)cnn21` [Example 47], the inhibition at 3.3 µM amounted to 96%.

For the molecule `CC1(C)C[C@H](c2ccccc2)Nc2c(C(=O)N3CC4CC4(c4cccc(Cl)c4)C3)cnn21` (stereo partly drawn) [Example 16, (1-(3-Chlorophenyl)-3-azabicyclo[3.1.0]hex-3-yl)((5R)-7,7-dimethyl-5-phenyl-4,5,6,7-tetrahydropyrazolo[1,5-a]pyrimidin-3-yl)methanone], the inhibition at 3.3 µM stood at 100%.

Turning to `Cc1cccc(C23CC2CN(C(=O)c2cnn4c2N[C@@H](c2ccccc2)CC4(C)C)C3)c1` (stereo partly drawn) [Example 23, ((5R)-7,7-Dimethyl-5-phenyl-4,5,6,7-tetrahydropyrazolo[1,5-a]pyrimidin-3-yl)(1-(3-methylphenyl)-3-azabicyclo[3.1.0]hex-3-yl)methanone], the “Inhibition rate (%) at 3.3 μm” value worked out at 92%.

As to `Cc1cccc(C23CC2CN(C(=O)c2cnn4c2N[C@@H](c2ccccc2)CC4(C)C)C3)c1` (stereo partly drawn) [Example 22, ((5R)-7,7-Dimethyl-5-phenyl-4,5,6,7-tetrahydropyrazolo[1,5-a]pyrimidin-3-yl)(1-(3-methylphenyl)-3-azabicyclo[3.1.0]hex-3-yl)methanone], the inhibition at 3.3 µM was found to be 101%.

Consider `CC1(C)C[C@H](c2ccccc2)Nc2c(C(=O)N3CC4CC4(c4cccc(Cl)c4)C3)cnn21` (stereo partly drawn) [Example 17, (1-(3-Chlorophenyl)-3-azabicyclo[3.1.0]hex-3-yl)((5R)-7,7-dimethyl-5-phenyl-4,5,6,7-tetrahydropyrazolo[1,5-a]pyrimidin-3-yl)methanone], for which the “Inhibition rate (%) at 3.3 μm” value is reported as 95%.

In the case of `CC1(C)C[C@H](c2ccccc2)Nc2c(C(=O)N3CC4CC4(c4ccc(C(F)(F)F)cc4F)C3)cnn21` (stereo partly drawn) [Example 29, ((5R)-7,7-Dimethyl-5-phenyl-4,5,6,7-tetrahydropyrazolo[1,5-a]pyrimidin-3-yl)(1-(2-fluoro-4-(trifluoromethyl)phenyl)-3-azabicyclo[3.1.0]hex-3-yl)methanone], the “Inhibition rate (%) at 3.3 μm” value was 92%.

Regarding `CC1(C)C[C@H](c2ccccc2)Nc2c(C(=O)N3CC4CC4(c4ccc(C(F)(F)F)cc4F)C3)cnn21` (stereo partly drawn) [Example 27, ((5R)-7,7-Dimethyl-5-phenyl-4,5,6,7-tetrahydropyrazolo[1,5-a]pyrimidin-3-yl)(1-(2-fluoro-4-(trifluoromethyl)phenyl)-3-azabicyclo[3.1.0]hex-3-yl)methanone], the inhibition at 3.3 µM turned out to be 111%.

Regarding `CC1(C)C[C@H](c2ccccc2)Nc2c(C(=O)N3CC4CC4(c4cccc(C(F)(F)F)c4)C3)cnn21` (stereo partly drawn) [Example 25, ((5R)-7,7-Dimethyl-5-phenyl-4,5,6,7-tetrahydropyrazolo[1,5-a]pyrimidin-3-yl)(1-(3-(trifluoromethyl)phenyl)-3-azabicyclo[3.1.0]hex-3-yl)methanone], the inhibition at 3.3 µM stood at 97%.

In the case of `CC1(C)C[C@H](c2ccccc2)Nc2c(C(=O)N3C[C@H]4C[C@@]4(c4ccc(Cl)c(Cl)c4)C3)cnn21` [Example 2, ((1R,5S)-1-(3,4-Dichlorophenyl)-3-azabicyclo[3.1.0]hex-3-yl)((5R)-7,7-dimethyl-5-phenyl-4,5,6,7-tetrahydropyrazolo[1,5-a]pyrimidin-3-yl)methanone], the inhibition at 3.3 µM was determined as 92%.

`COc1ccc(C23CN(C(=O)c4cnn5c4N[C@@H](c4ccccc4)CC5(C)C)CC2C3(F)F)cc1` (stereo partly drawn) [Example 50, (6.6-Difluoro-1-(4-methoxyphenyl)-3-azabicyclo[3.1.0]hex-3-yl)((5R)-7,7-dimethyl-5-phenyl-4,5,6,7-tetrahydropyrazolo[1,5-a]pyrimidin-3-yl)methanone]: the inhibition at 3.3 µM was 128%.

`Cc1ccc(C23CN(C(=O)c4cnn5c4N[C@@H](c4ccccc4)CC5(C)C)CC2C3(F)F)cc1` (stereo partly drawn) [Example 48, (6,6-Difluoro-1-(4-methylphenyl)-3-azabicyclo[3.1.0]hex-3-yl)((5R)-7,7-dimethyl-5-phenyl-4,5,6,7-tetrahydropyrazolo[1,5-a]pyrimidin-3-yl)methanone]: the inhibition at 3.3 µM worked out at 117%.

As to `COc1cccc(C23CC2CN(C(=O)c2cnn4c2N[C@@H](c2ccccc2)CC4(C)C)C3)c1` (stereo partly drawn) [Example 20, ((5R)-7,7-Dimethyl-5-phenyl-4,5,6,7-tetrahydropyrazolo[1,5-a]pyrimidin-3-yl)(1-(3-methoxyphenyl)-3-azabicyclo[3.1.0]hex-3-yl)methanone], the “Inhibition rate (%) at 3.3 μm” value stood at 93%.

Take `Cc1cccc(C23CN(C(=O)c4cnn5c4N[C@@H](c4ccccc4)CC5(C)C)CC2C3(F)F)c1` (stereo partly drawn) [Example 49, (6,6-Difluoro-1-(3-methylphenyl)-3-azabicyclo[3.1.0]hex-3-yl)((5R)-7,7-dimethyl-5-phenyl-4,5,6,7-tetrahydropyrazolo[1,5-a]pyrimidin-3-yl)methanone]: the inhibition at 3.3 µM was determined as 136%.

For the molecule `COc1cccc(C23CC2CN(C(=O)c2cnn4c2N[C@@H](c2ccccc2)CC4(C)C)C3)c1` (stereo partly drawn) [Example 19, ((5R)-7,7-Dimethyl-5-phenyl-4,5,6,7-tetrahydropyrazolo[1,5-a]pyrimidin-3-yl)(1-(3-methoxyphenyl)-3-azabicyclo[3.1.0]hex-3-yl)methanone], the inhibition at 3.3 µM was found to be 99%.

On to `CC1(C)C[C@H](c2ccccc2)Nc2c(C(=O)N3CC4CC4(c4ccc(C(F)(F)F)cc4F)C3)cnn21` (stereo partly drawn) [Example 28, ((5R)-7,7-Dimethyl-5-phenyl-4,5,6,7-tetrahydropyrazolo[1,5-a]pyrimidin-3-yl)(1-(2-fluoro-4-(trifluoromethyl)phenyl)-3-azabicyclo[3.1.0]hex-3-yl)methanone], for which the “Inhibition rate (%) at 3.3 μm” value is recorded as 101%.

Take `CC1(C)C[C@H](c2ccccc2)Nc2c(C(=O)N3CC4C[C@]4(c4ccc(C(F)(F)F)cc4)C3)cnn21` (stereo partly drawn) [Example 8, ((5R)-7,7-Dimethyl-5-phenyl-4,5,6,7-tetrahydropyrazolo[1,5-a]pyrimidin-3-yl)(1-(4-(trifluoromethyl)phenyl)-3-azabicyclo[3.1.0]hex-3-yl)methanone]: the inhibition at 3.3 µM stood at 92%.

Turning to `CC1(C)C[C@H](c2ccccc2)Nc2c(C(=O)N3CC4CC4(c4ccc(C(F)(F)F)c(Cl)c4)C3)cnn21` (stereo partly drawn) [Example 12, (1-(3-Chloro-4-(trifluoromethyl)phenyl)-3-azabicyclo[3.1.0]hex-3-yl)((5R)-7,7-dimethyl-5-phenyl-4,5,6,7-tetrahydropyrazolo[1,5-a]pyrimidin-3-yl)methanone], the inhibition at 3.3 µM is 90%.
